From US20230026856A1, “HETEROCYCLIC COMPOUNDS AND METHODS OF USE THEREOF” (SPARCBIO LLC, priority 2020, published 2023)

Experiments:
[1] = target: KRAS G12C protein (Homo sapiens, UniProt P01116, G12C); assay: Nucleotide exchange assay, Method III (TR-FRET, association of KRAS G12C with Raf-RBD, SOS1-mediated exchange); type: biochemical; conditions: overnight (18 hr) incubation with GDP-bound KRAS G12C
Description: Method III. Inhibition of SOS1-mediated exchange of GDP for GTP on the KRAS G12C protein was measured in a biochemical assay that monitors association of KRAS G12C protein with the Ras-binding domain of Raf (Raf-RBD), where the association is coupled to exchange of GDP to GTP on the KRAS G12C protein. The assay was performed at WuXi AppTec (Shanghai, China). Compounds were serially diluted in 3-fold dilutions to 11 concentrations and spotted into the wells of an assay plate in a total volume of 150 nL DMSO per well. A 2× enzyme mix was prepared by diluting GDP-bound, His-tagged KRAS G12C to 25 nM in assay buffer. 10 μL/well of 2× enzyme mix was added to all wells, and the plate was sealed and incubated overnight (18 hr) at 23° C. 4×SOS1/GDP and 4×SOS1/GTP were prepared in assay buffer. 5 μL/well of 4×SOS1/GDP mix was added to negative control wells, 5 μL/well of 4×SOS1/GTP mix was added to the remaining wells, and the plate was further incubated at 23° C. for 1 hr. Finally, FLAG-tagged Raf-RBD is added to the reaction mixture along with a pair of FRET donor- and acceptor-conjugated antibodies specific for the FLAG-tagged Raf-RBD and His-tagged KRAS G12C proteins. A 4× Raf-RBD/Tb-anti-FLAG/D2-anti-His mix was prepared in assay buffer, and 5 μL/well of the mix was added to all wells, followed by incubation at room temperature for 2 hr. The TR-FRET signals, which increase with association of KRAS G12C and Raf-RBD, were measured on a Perkin Elmer Envision 2104 plate reader, and data were analyzed by non-linear regression to obtain IC50 values for inhibition by compounds. Table 2 includes results of the assay of Method III. ‘+++’ indicates IC50 values ≤300 nM, ‘++’ indicates IC50 values between 300 nM-3 μM, and ‘+’ indicates IC50 values ≥3 μM.

[2] = test system: NCI-H358 cells; assay: 3D cell proliferation assay (Cell Titer-Glo 3D); type: cell-based; conditions: Homo sapiens, NCI-H358, 168 h, NCI-H358, 3D (ultra-low attachment); 7 days
Description: NCI-H358 cells (ATCC® CRL-5807™) were plated in a 384-well Black/Clear Round Bottom Ultra-Low Attachment Microplate (Corning) in medium (RPMI-1640+10% FBS) at a density of 1000 cells in 50 μL per well, then incubated overnight at 37° C. and 5% CO2. Cells were treated with test compounds at 9 concentrations within a specified concentration range (e.g., 0.5 nM-10 μM) for generation of dose response curves. Test compounds were prepared by 1:3 serial dilution in DMSO from a specified starting concentration (e.g., 20 μM, 2 μM or 0.2 μM) and then added to wells of the assay plate in a total volume of 150 nL DMSO. The cells were further incubated at 37° C. and 5% CO2 for 7 days. Cell viability was assessed by adding 40 μL of Cell Titer-Glo® 3D reagent (Cat. No.: G9683, Promega) to each well and reading luminescence after mixing and incubation of the samples. The IC50 value of each test compound was calculated with XLFit curve fitting software.

Chain of KRAS G12C protein (P01116 1-188 isoform P01116-2 G12C): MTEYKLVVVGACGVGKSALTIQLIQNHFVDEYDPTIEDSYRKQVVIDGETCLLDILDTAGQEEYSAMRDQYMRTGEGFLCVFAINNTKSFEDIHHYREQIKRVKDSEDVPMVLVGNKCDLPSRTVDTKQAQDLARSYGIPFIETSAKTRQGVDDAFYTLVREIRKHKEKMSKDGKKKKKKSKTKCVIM

For C=CC(=O)N1CCN(c2c(C(=O)NC)c(=O)n(-c3c(C)ccnc3C(C)C)c3nc(-c4c(O)cccc4F)c(F)cc23)CC1 (single isomer, unassigned) [84 (Isomer A), 4-(4-acryloylpiperazin-1-yl)-6-fluoro-7-(2-fluoro-6-hydroxyphenyl)-1-(2-isopropyl-4-methylpyridin-3-yl)-N-methyl-2-oxo-1,2-dihydro-1,8-naphthyridine-3-carboxamide], which IC50 [1] is on record?
The IC50 was ≤ 300 nM.

And the IC50 [2]?
The IC50 was 100 to 2000 nM.

How did the IC50 [1] turn out when C=CC(=O)N1CCN(c2c(S(C)(=O)=O)c(=O)n(-c3c(C)ccnc3C(C)C)c3c(F)c(-c4c(O)cccc4F)c(Cl)cc23)CC1 (single isomer, unassigned) [176 (Isomer D), 4-(4-acryloylpiperazin-1-yl)-6-chloro-8-fluoro-7-(2-fluoro-6-hydroxyphenyl)-1-(2-isopropyl-4-methylpyridin-3-yl)-3-(methylsulfonyl)quinolin-2(1H)-one] was run?
Its IC50 is ≤ 300 nM.

And the IC50 [2]?
Its IC50 is ≤ 100 nM.

What does the source list for C=CC(=O)N1CCN(c2c(C(=O)NC)c(=O)n(-c3c(C)ccnc3C(C)C)c3nc(-c4c(O)cccc4F)c(F)cc23)C[C@H]1C (single isomer, unassigned) [82 (Isomer A)]?
IC50 [1]: ≤ 300 nM; IC50 [2]: 100 to 2000 nM

C=CC(=O)N1CCN(c2c(C(=O)NC)c(=O)n(-c3c(C)ccnc3C(C)C)c3nc(-c4cccc5sc(N)nc45)c(F)cc23)C[C@H]1C (single isomer, unassigned) [253 (Isomer A)] was tested. Which IC50 [1] did it give?
The IC50 was ≤ 300 nM.

Which IC50 [1] does the source give for C=CC(=O)N1CCN(c2c(C(=O)NC)c(=O)n(-c3c(C)ccnc3C(C)C)c3nc(-c4c(C)ccc5[nH]ncc45)c(F)cc23)CC1 (single isomer, unassigned) [116 (Isomer B), 4-(4-acryloylpiperazin-1-yl)-6-fluoro-1-(2-isopropyl-4-methylpyridin-3-yl)-N-methyl-7-(5-methyl-1H-indazol-4-yl)-2-oxo-1,2-dihydro-1,8-naphthyridine-3-carboxamide] here?
Its IC50 is 300 to 3000 nM.

How did the IC50 [1] turn out when C=CC(=O)N1CCN(c2c(S(C)(=O)=O)c(=O)n(-c3c(C)ccnc3C(C)C)c3nc(-c4c(O)cccc4F)c(F)cc23)C[C@H]1C (single isomer, unassigned) [143 (Isomer B)] was run?
The IC50 was ≤ 300 nM.

C=CC(=O)N1CCN(c2c(S(C)(=O)=O)c(=O)n(-c3c(C)ccnc3C(C)C)c3c(F)c(-c4c(O)cccc4F)c(Cl)cc23)CC1 (single isomer, unassigned) [176 (Isomer C), 4-(4-acryloylpiperazin-1-yl)-6-chloro-8-fluoro-7-(2-fluoro-6-hydroxyphenyl)-1-(2-isopropyl-4-methylpyridin-3-yl)-3-(methylsulfonyl)quinolin-2(1H)-one] was tested. Which IC50 [1] did it give?
The IC50 was 300 to 3000 nM.

C=CC(=O)N1CCN(c2c(C(=O)NC)c(=O)n(-c3c(C)ccnc3C(C)C)c3nc(-c4c(C)ccc5[nH]ncc45)c(F)cc23)C[C@H]1C (single isomer, unassigned) [114 (Isomer A)] was tested. Which IC50 [1] did it give?
The IC50 was 300 to 3000 nM.

How did the IC50 [1] turn out when C=CC(=O)N1CCC(c2c(C(=O)NC)c(=O)n(-c3c(C)ccnc3C(C)C)c3nc(-c4c(O)cccc4F)c(F)cc23)CC1 (single isomer, unassigned) [68 (Isomer B), 4-(1-acryloylpiperidin-4-yl)-6-fluoro-7-(2-fluoro-6-hydroxyphenyl)-1-(2-isopropyl-4-methylpyridin-3-yl)-N-methyl-2-oxo-1,2-dihydro-1,8-naphthyridine-3-carboxamide] was run?
The IC50 was ≥ 3000 nM.

C=CC(=O)N1CCC(n2c(=O)c(=O)n(-c3c(C)ccnc3C(C)C)c3nc(-c4c(O)cccc4F)c(F)cc32)C(C)C1 (single isomer, unassigned) [294 (Isomer E), 1-(1-acryloyl-3-methylpiperidin-4-yl)-7-fluoro-6-(2-fluoro-6-hydroxyphenyl)-4-(2-isopropyl-4-methylpyridin-3-yl)-1,4-dihydropyrido[2,3-b]pyrazine-2,3-dione] was tested. Which IC50 [1] did it give?
Its IC50 is ≥ 3000 nM.
